Assay results from patent US7744867B2, “PTPase inhibitors and method of using same” (The Cleveland Clinic Foundation, priority 2001, dated 2010).
Blank lines part the entries; values can stand above or below the compound they belong to.

How the values were obtained:
[1] = tested on: acute promyelocytic leukemia (APL); conditions: in vivo; cited from earlier work
[2] = tested on: NB4 cells; assay: Differentiation, proliferation and cell cycle of AML cell line; type: cell-based, human; conditions: 3 days; sodium stibogluconate 250 μg/ml, ATRA 1 μM
Protocol: Cell lines, cell culture, and cell proliferation assay. The NB4 cell line was a gift from Dr. Dan Lindner of CCF. HL60 and U937 cell lines were purchased from ATCC. These human AML cell lines were maintained in RPMI 1640 medium supplemented with 10% fetal calf serum (FCS). For cell proliferation assays, cells were cultured at 37° C. in 10% FCS medium containing various amounts of sodium stibogluconate for 6 days. The cell numbers in the cultures were determined by an MTT assay as described previously.
Differentiation of AML cell lines was assessed by their ability to produce superoxide as measured by reduction of NBT to formazan and by analysis of expression of CD11b surface marker by flow cytometry. For NBT reduction, each cell suspension was mixed with an equal volume of solution containing 1 mg/ml of NBT (Sigma) and 2.5 μg/ml of TPA for 30 minutes at 37° C. After incubation, cells containing the purple formazan deposits and cells devoid of NBT-reducing activity (white cells) in each sample were determined by counting 200 cells under microscope. We expressed the data as percentage of the following ratio: purple cells/purple+white cells. For analysis of cell surface antigens, cells were exposed to phycoerythrin (PE)−conjugated murine anti-human CD11b (DAKO corp, Carpinteria, Calif.). Analysis of fluorescence was performed on a FACScan flow cytometer (Beckton Dickinson, Mountain View, Calif.). The cell cycle was analyzed by flow cytometry after 3 days of culture of NB4 cells in the absence or presence of sodium stibogluconate (250 μg/ml) or ATRA (1 μM). Briefly, the cells were fixed in cold ethanol and incubated for 30 minutes at 4° C. in the dark with a solution of […] propidium iodide, 1 mg/ml RNase and 0.1% NP-40. Analysis was performed immediately after staining using the CELLFIT program (Becton Dickinson, Mountain View, Calif.).

[3] = tested on: PTPases; assay: PTPase inhibition in vitro by ketoconazole; type: biochemical
[4] = target: T1, intracellular Flag-PRL-1 (Homo sapiens, UniProt Q93096); assay: PTPase activity of anti-Flag immunocomplexes from NIH3T3 transfectants; type: cell-based; conditions: treated 5 min
T1 construct: expressed in transfected cells; host or cells: NIH3T3
Protocol: (§1) An expression construct of Flag-tagged PRL-1 or control vector was transfected into NIH3T3 cells which were then treated without or with sodium stibogluconate and used for immunoprecipitation assays with a monoclonal anti-Flag antibody. The immunocomplexes were analyzed by SDS-PAGE/Western blotting and PTPase assays. A Flag-tagged protein with a molecular weight approximately 22 kDa as expected for Flag-PRL-1 was detected in the immunocomplexes from untreated or sodium stibogluconate -treated Flag-PRL-1 transfectants but not in those from the control cells (FIG. 6A).
(§2) Glucatime inactivates intracellular PRL phosphatases. NIH3T3 stable transfectants of Flag-tagged PRL-1 (A), PRL-2 (B) and PRL-3 (C) were untreated or treated with glucatime for 5 minutes and then washed to remove cell free drug. The Flag-tagged PRLs were immunoprecipitated from the cells using a monoclonal anti-Flag antibody. The amounts of Flag-tagged PRLs in the immunocomplexes were quantified by SDS-PAGE/Western blotting with the anti-Flag antibody (the top panel). Activities of the immunocomplexes in dephosphorylating a synthetic phosphotyrosine peptide were determined by in vitro PTPase assays (the low panel).

[5] = target: T2, intracellular Flag-PRL-3 (Homo sapiens, UniProt O75365); assay: as above; type: cell-based; conditions: treated 5 min
T2 construct: expressed in transfected cells; host or cells: NIH3T3
Protocol: as §1, §2

[6] = target: T3, GST/SHP-1 fusion protein (Mus musculus, UniProt P29351); assay: Reversibility of SHP-1 inhibition (washing of bead-bound GST/SHP-1); type: biochemical; conditions: preincubated with inhibitor, then washed
T3 construct: made in house
Source text: The beads were then washed 3 times in Tris buffer or without washing prior to in vitro PTPase assays.

[7] = target: T4, intracellular Flag-PRL-2 (Homo sapiens, UniProt Q12974); assay: PTPase activity of anti-Flag immunocomplexes from NIH3T3 transfectants; type: cell-based
T4 construct: expressed in transfected cells; host or cells: NIH3T3
T4 sequence (Q12974 1-167): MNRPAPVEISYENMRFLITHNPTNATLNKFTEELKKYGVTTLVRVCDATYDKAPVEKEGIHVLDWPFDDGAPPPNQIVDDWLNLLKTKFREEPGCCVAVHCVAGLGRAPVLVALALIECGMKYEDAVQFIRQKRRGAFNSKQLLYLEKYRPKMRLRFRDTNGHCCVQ
Protocol: as §1
Flag-PRL-2 transfectants were briefly treated with sodium stibogluconate for 5 minutes, washed to remove cell-free drug and then incubated for various times prior to termination by cell lysis. Anti-Flag immunocomplexes from the cells were analyzed by SDS-PAGE/Western blotting and PTPase assays. The amounts of Flag-PRL-2 proteins in the immunocomplexes were at similar levels as quantified by probing with an anti-Flag antibody. […] PTPase activity of the immunocomplexes from cells incubated for 24 hours was 78% of the untreated cells.
Glucatime-induced inactivation of intracellular PRL-2 lasts more than 24 hours. NIH3T3 stable transfectant of Flag-tagged PRL-2 was treated with glucatime for 5 minutes, washed to remove cell free drug and then incubated for various times prior to termination by lysing the cells in lysis buffer. Flag-tagged PRL-2 was immunoprecipitated from the cell lysates using a monoclonal anti-Flag antibody. The amounts of Flag-tagged PRL-2 in the immunocomplexes were quantified by SDS-PAGE/Western blotting with the anti-Flag antibody (A). Activities of the immunocomplexes in dephosphorylating a synthetic phosphotyrosine peptide were determined by in vitro PTPase assays (B).

[8] = target: T5, intracellular PTP1B (Mus musculus, UniProt P35821); assay: PTPase activity of anti-PTP1B immunocomplexes from NIH3T3 cells; type: cell-based; conditions: treated 5 minutes
T5 construct: endogenous in cells; host or cells: NIH3T3
Protocol: NIH3T3 cells were untreated or treated with glucatime for 5 minutes. PTP1B protein was immunoprecipitated from the cells using an anti-PTP1B antibody. The amounts of PTP1B in the immunocomplexes were quantified by SDS-PAGE/Western blotting with the anti-PTP1B antibody (A). Activities of the immunocomplexes in dephosphorylating a synthetic phosphotyrosine peptide were determined by in vitro PTPase assays (B).

[9] = target: T6, recombinant PRL-2 (Homo sapiens, UniProt Q12974); assay: In vitro PTPase assay with recombinant PRL; type: biochemical
T6 construct: made in house; host or cells: E. coli DH5α
T6 sequence (Q12974 1-167): T4 sequence (Q12974 1-167)
Protocol: (§3) In vitro PTPase activities were measured using the commercial protein tyrosine phosphatase assay kit (UBI) following established procedure. […] 100 μl of Malachite Green solution was added and incubated for 5 minutes, and the absorbance at 660 nm was measured after 5 minutes.
(§4) Recombinant GST fusion proteins of human PRL-1, 2 and 3 phosphatases were purified with glutathione beads from DH5α bacteria transformed by pGEX vectors containing cDNA fragments encoding the human PRLs which were generated by RT-PCR from H9 cells and confirmed by sequence analysis. Activities of the purified recombinant PRL proteins in dephosphorylating DiFMUP in the absence or presence of various inhibitors were measured following established procedure.
(§5) To assess whether sodium stibogluconate is an inhibitor of oncogenic PRL phosphatases, its effects on the PTPase activity of recombinant PRLs were evaluated by in vitro PTPase assays.

[10] = target: T7, recombinant PRL-1 (Homo sapiens, UniProt Q93096); assay: In vitro PTPase assay with recombinant PRL; type: biochemical; conditions: peptide substrate
T7 construct: made in house; host or cells: E. coli DH5α
Protocol: as §3, §4, §5

[11] = target: T8, recombinant PRL-3 (Homo sapiens, UniProt O75365); assay: In vitro PTPase assay with recombinant PRL (peptide or DiFMUP substrate); type: biochemical; conditions: for inhibition of PRL-3 compared with sodium stibogluconate: DiFMUP substrate, comparable conditions
T8 construct: made in house; host or cells: E. coli DH5α
Protocol: as §3, §4, §5

[12] = target: T9, PTP1B (GST fusion protein) (Homo sapiens, UniProt P18031); assay: In vitro PTPase assay, dephosphorylation of a synthetic phosphotyrosine peptide; type: biochemical
T9 construct: purchased Upstate Biotechnology Inc. (UBI, Lake Placid, N.Y.)
Protocol: as §3

[13] = tested on: human cancer cell lines (A549, DR, HEY, MDA231, SK-N-SH, WM9); assay: Growth of human cancer cell lines with glucatime and/or IFNα (MTT, 6 days); type: cell-based
Protocol: Growth of human cancer cell lines cultured in the absence or presence of glucatime and/or IFNα (500 U/ml) for 6 days were determined by MTT assays. These cell lines were of different human malignancies, including lung cancer (A549), lymphoma (DR), ovarian cancer (HEY), breast cancer (MDA231, or MDA), neuroblastoma (SK-N-SH, or SK) and melanoma (WM9).

[14] = tested on: Jak2 and Stat5 tyrosine phosphorylation; assay: IL-3-induced Jak2/Stat5 tyrosine phosphorylation in Baf3 cells; type: cell-based, murine
Protocol: For induction of cellular protein phosphorylation by sodium stibogluconate or pervanadate, Baf3 cells were incubated in 0.1% FCS RPMI 1640 medium at 37° C. for 16 hours. The cells were then washed twice in RPMI 1640 medium and incubated with sodium stibogluconate or pervanandate (0.1 mM) for various times prior to termination by lysing cells in cold lysis buffer (50 mM Tris, pH 7.4; 150 mM NaCl; 0.2 mM Na3VO4; 20 mm NaF; 1% NP40; 2 mM PMSF; 20 μg/ml of aprotinin and 1 mM of sodium molybdic acid). To determine the effect of sodium stibogluconate or potassium antimonyl tartrate on IL-3-induced Jak/Stat phosphorylation, Baf3 cells were deprived of the growth factor for 16 hours in 0.1% FCS RPMI 1640 medium and then incubated with or without sodium stibogluconate or potassium antimonyl tartrate for 10 minutes. IL-3 was next added to the cell suspension and incubated for various times. The cells were then harvested and lysed in cold lysis buffer at 4° C. for 45 minutes. Total cell lysates (TCL) were separated in SDS-PAGE gels, blotted onto nitrocellulose membrane (Schleicher & Schuell), probed with specific antibodies and detected using an enhanced chemiluminescence kit (ECL, Amersham).
A functional role of SHP-1 in dephosphorylating the Jak family kinases during cytokine signaling has been documented. To determine whether sodium stibogluconate inhibits SHP-1 in vivo, the effect of the drug on IL-3-induced Jak2 tyrosine phosphorylation in Baf3 cells was examined. Baf3 cells deprived of IL-3 were incubated with or without the drug for 10 minutes and then stimulated with IL-3 for various times. IL-3 induced tyrosine phosphorylation of Jak2 and Stat5 in Baf3 cells in the presence or absence of the drug. However, the phosphotyrosine levels of Jak2 and Stat5 in the presence of the drug were about twice of those in cells without drug treatment as determined by densitometry analysis.

[15] = tested on: Baf3 cells; assay: IL-3-induced proliferation of Baf3 cells; type: cell-based, murine
Protocol: The murine hematopoietic cell line Baf3 was maintained in RPMI 1640 medium supplemented with 10% fetal calf serum (FCS) and murine IL-3 (20 units/ml) as described previously. Human myeloid cell line TF-1 was maintained in RPMI 1640 supplemented with 10% FCS and 40 ng/ml of recombinant human GM-CSF as described previously. For cell proliferation assays, cells were washed in 10% FCS medium twice, resuspended in 10% FCS medium, incubated at 37° C. for 16 hours and then cultured at 37° C. in 10% FCS medium containing various amounts of cytokines, sodium stibogluconate, or PSbT for 3-6 days as indicated. The cell numbers in proliferation assays were determined by an MTT assay or by microscopic cell counting as indicated.

[16] = target: T3, GST/SHP-1 fusion protein; assay: In vitro PTPase assay, dephosphorylation of a synthetic phosphotyrosine peptide; type: biochemical
Protocol: In vitro PTPase activities were measured using the commercial protein tyrosine phosphatase assay kit (UBI) following established procedure. This assay measures the in vitro dephosphorylation of a synthetic phosphotyrosine peptide (R-R-L-I-E-D-A-E-pY-A-A-R-G). Briefly, 0.01 μg of GST/PTPase fusion protein was incubated in 50 μl of Tris buffer (10 mM Tris, […]) at 22° C. for 10 minutes, followed by addition of 0.2 mM of the phosphotyrosine peptide and incubation at 22° C. for 18 hours. 100 μl of Malachite Green solution was added and incubated for 5 minutes, and the absorbance at 660 nm was measured after 5 minutes.

T8 sequence (O75365 whole entry): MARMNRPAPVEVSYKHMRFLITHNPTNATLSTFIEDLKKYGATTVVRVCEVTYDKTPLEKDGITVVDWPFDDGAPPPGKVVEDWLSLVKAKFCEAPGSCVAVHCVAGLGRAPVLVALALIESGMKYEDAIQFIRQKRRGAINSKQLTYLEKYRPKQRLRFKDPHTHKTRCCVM
T9 sequence (P18031 whole entry, species assumed, the tested form may be a part): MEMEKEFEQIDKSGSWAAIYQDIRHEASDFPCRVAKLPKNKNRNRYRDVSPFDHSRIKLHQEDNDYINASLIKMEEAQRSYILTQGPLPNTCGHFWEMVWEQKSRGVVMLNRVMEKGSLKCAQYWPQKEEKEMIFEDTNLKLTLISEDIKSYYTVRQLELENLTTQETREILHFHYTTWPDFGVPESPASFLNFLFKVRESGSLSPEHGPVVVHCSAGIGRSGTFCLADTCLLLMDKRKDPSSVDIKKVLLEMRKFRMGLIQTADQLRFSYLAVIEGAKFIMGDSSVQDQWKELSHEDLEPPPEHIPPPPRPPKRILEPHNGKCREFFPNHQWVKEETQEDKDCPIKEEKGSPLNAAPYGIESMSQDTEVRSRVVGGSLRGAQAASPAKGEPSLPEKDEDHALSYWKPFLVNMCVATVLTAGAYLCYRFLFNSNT
T2 sequence (O75365 whole entry): as the sequence (O75365 whole entry) above
T1 sequence (Q93096 whole entry): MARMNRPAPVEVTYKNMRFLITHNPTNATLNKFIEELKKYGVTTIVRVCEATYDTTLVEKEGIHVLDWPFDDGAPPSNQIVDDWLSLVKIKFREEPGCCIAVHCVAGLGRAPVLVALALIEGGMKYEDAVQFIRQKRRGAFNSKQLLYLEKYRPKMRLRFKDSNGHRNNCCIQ
T7 sequence (Q93096 whole entry): as above
T5 sequence (P35821 whole entry): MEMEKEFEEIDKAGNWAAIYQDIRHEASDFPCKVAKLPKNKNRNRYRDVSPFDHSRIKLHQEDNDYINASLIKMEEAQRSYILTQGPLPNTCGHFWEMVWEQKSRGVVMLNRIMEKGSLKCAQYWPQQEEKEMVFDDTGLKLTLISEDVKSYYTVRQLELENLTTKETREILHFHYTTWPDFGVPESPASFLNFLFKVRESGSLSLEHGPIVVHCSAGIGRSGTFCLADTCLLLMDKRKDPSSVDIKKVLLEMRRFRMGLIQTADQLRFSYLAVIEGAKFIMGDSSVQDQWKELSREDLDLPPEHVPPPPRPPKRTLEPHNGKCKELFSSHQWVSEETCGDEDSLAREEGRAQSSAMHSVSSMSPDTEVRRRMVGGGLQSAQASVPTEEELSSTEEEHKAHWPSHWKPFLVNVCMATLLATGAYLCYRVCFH

SMILES: CC1=C(/C=C/C(C)=C/C=C/C(C)=C/C(=O)O)C(C)(C)CCC1 [ATRA, all-trans-retinoic acid]
long term APL-free survival [1]: exceeding 75% | cell cycle arrest (DNA content analysis) [2]: arrested at G1 phase

PTPase inhibition in vitro [3]: inhibits different PTPases
SMILES: CC(=O)N1CCN(c2ccc(OCC3COC(Cn4ccnc4)(c4ccc(Cl)cc4Cl)O3)cc2)CC1 (stereo not shown) [ketoconazole]

SMILES: CNC[C@H](O)[C@@H](O)[C@H](O)[C@H](O)CO.[O]=[Sb]([OH])([OH])[OH] [glucatime, meglumine antimonate]
PTPase activity of Flag-PRL-1 immunocomplexes from treated transfectants [4]: inactivates | PTPase activity of Flag-PRL-3 immunocomplexes from treated transfectants [5]: inactivates | reversibility of SHP-1 inhibition [6]: irreversible | PTPase activity of Flag-PRL-2 immunocomplexes from treated transfectants ([7]; treated 5 min): inactivates | duration of intracellular PRL-2 inactivation ([7]; treated 5 minutes, washed to remove cell free drug): more than 24 hours | inhibition of intracellular PTP1B [8]: partial inhibition | inhibition of recombinant PRL-2 ([9]; peptide substrate): potent inhibitor | reversibility of PRL-2 inactivation ([9]; washing process / stable complex): irreversible | inhibition of recombinant PRL-1 [10]: potent inhibitor | inhibition of recombinant PRL-3 ([11]; peptide substrate): potent inhibitor | effect against recombinant PTP1B in vitro [12]: partial inhibitory effect | IFNα-induced growth inhibition in presence of glucatime ([13]; IFNα 500 U/ml): augments | growth of human cancer cell lines in culture ([13]; MTT): inhibits the growth

SMILES: O.O.O.O=C([O-])[C@H]([O-])[C@@H]([O-])C(=O)[O-].O=C([O-])[C@H]([O-])[C@@H]([O-])C(=O)[O-].[K+].[K+].[Sb+3].[Sb+3] [PSbT, potassium antimonyl tartrate]
IL-3-induced Stat5 phosphorylation [14]: failed to enhance | IL-3-induced proliferation of Baf3 cells [15]: failed to enhance | toxicity against Baf3 cells [15]: marked toxicity | inhibition of PTP1B ([12]; at 11,000 μg/ml): no detectable inhibition | inhibition of SHP-1 ([16]; at 11,000 μg/ml): no detectable inhibition

reversibility of SHP-1 inhibition [6]: reversible | inhibition of PRL-3 compared with sodium stibogluconate [11]: less effective | inhibition of SHP-1 compared with sodium stibogluconate ([16]; under comparable conditions): less effective
SMILES: Cc1ccc(C(=O)Nc2ccc(S(=O)(=O)O)c3cc(S(=O)(=O)O)cc(S(=O)(=O)O)c23)cc1NC(=O)c1cccc(NC(=O)Nc2cccc(C(=O)Nc3cc(C(=O)Nc4ccc(S(=O)(=O)O)c5cc(S(=O)(=O)O)cc(S(=O)(=O)O)c45)ccc3C)c2)c1 [suramin]

SMILES: [Na+].[Na+].[Na+].[O]=[V]([O-])([O-])[O-] [sodium orthovanadate]
inhibition of PRL-3 compared with sodium stibogluconate [11]: less effective
